From ChEMBL document CHEMBL2203221, “Atom-based enumeration: new eribulin analogues with low susceptibility to P-glycoprotein-mediated drug efflux” (Bioorg Med Chem Lett, 2012)

Assays:
[1] = system: MES-SA; assay: Resistance ratio of IC50 for human MES-SA/Dx5-Rx1 cells to IC50 for human MES-SA cells; format: functional
[2] = Cytotoxicity against human MES-SA/Dx5-Rx1 cells; format: functional, cell-based
[3] = Cytotoxicity against human MES-SA cells; format: functional, cell-based

Row | SMILES | Ratio IC50 [1] | IC50 [2] | IC50 [3]
1 | C=C1C[C@@H]2CC[C@@]34C[C@H]5O[C@@H]6[C@@H](O3)[C@H]3O[C@H](CC[C@@H]3O[C@H]6[C@H]5O4)CC(=O)C[C@@H]3[C@@H](OC)[C@@H](CC(O)CCCCCC)O[C@H]3C[C@H]3O[C@@H](CC[C@@H]1O2)C[C@@H](C)C3=C (stereo not given in full) | 4.6 | 2.1 nM | 0.46 nM
2 | C=C1C[C@@H]2CC[C@@]34C[C@H]5O[C@H]6[C@@H](O3)[C@H]3O[C@H](CC[C@@H]3O[C@H]6[C@H]5O4)CC(=O)C[C@@H]3[C@@H](OC)[C@@H](C[C@H](O)CN)O[C@H]3C[C@H]3O[C@@H](CC[C@@H]1O2)C[C@@H](C)C3=C.CS(=O)(=O)O [ERIBULIN MESYLATE] | 1800 | 3100 nM | 1.7 nM
3 | C=C1C[C@@H]2CC[C@@]34C[C@H]5O[C@@H]6[C@@H](O3)[C@H]3O[C@H](CC[C@@H]3O[C@H]6[C@H]5O4)CC(=O)C[C@@H]3[C@@H](OC)[C@@H](CCO)O[C@H]3C[C@H]3O[C@@H](CC[C@@H]1O2)C[C@@H](C)C3=C | 33 | 100 nM | 3 nM
4 | C=C1C[C@@H]2CC[C@@]34C[C@H]5O[C@@H]6[C@@H](O3)[C@H]3O[C@H](CC[C@@H]3O[C@H]6[C@H]5O4)CC(=O)C[C@@H]3[C@@H](OC)[C@@H](C[C@H](O)COC)O[C@H]3C[C@H]3O[C@@H](CC[C@@H]1O2)C[C@@H](C)C3=C | 17 | 2.8 nM | 0.17 nM
5 | C=C1C[C@@H]2CC[C@@]34C[C@H]5O[C@@H]6[C@@H](O3)[C@H]3O[C@H](CC[C@@H]3O[C@H]6[C@H]5O4)CC(=O)C[C@@H]3[C@@H](OC)[C@@H](C[C@H](O)CO)O[C@H]3C[C@H]3O[C@@H](CC[C@@H]1O2)C[C@@H](C)C3=C | 220 | 6.5 nM | 0.03 nM
6 | CC(=O)O[C@H]1C(=O)[C@@]2(C)[C@H]([C@H](OC(=O)c3ccccc3)[C@]3(O)C[C@H](OC(=O)[C@H](O)[C@@H](NC(=O)c4ccccc4)c4ccccc4)C(C)=C1C3(C)C)[C@]1(OC(C)=O)CO[C@@H]1C[C@@H]2O [PACLITAXEL] |  | > 1000 nM | 
7 | C=C1C[C@@H]2CC[C@@]34C[C@H]5O[C@@H]6[C@@H](O3)[C@H]3O[C@H](CC[C@@H]3O[C@H]6[C@H]5O4)CC(=O)C[C@@H]3[C@@H](OC)[C@@H](CC(C)O)O[C@H]3C[C@H]3O[C@@H](CC[C@@H]1O2)C[C@@H](C)C3=C (stereo not given in full) | 17 | 4.8 nM | 0.29 nM
8 | C=C1C[C@@H]2CC[C@@]34C[C@H]5O[C@@H]6[C@@H](O3)[C@H]3O[C@H](CC[C@@H]3O[C@H]6[C@H]5O4)CC(=O)C[C@@H]3[C@@H](OC)[C@@H](CC(O)CCCCCCCC)O[C@H]3C[C@H]3O[C@@H](CC[C@@H]1O2)C[C@@H](C)C3=C (stereo not given in full) | 7.2 | 5.6 nM | 0.77 nM
9 | C=C1C[C@@H]2CC[C@@]34C[C@H]5O[C@@H]6[C@@H](O3)[C@H]3O[C@H](CC[C@@H]3O[C@H]6[C@H]5O4)CC(=O)C[C@@H]3[C@@H](OC)[C@@H](CC(O)CCCC)O[C@H]3C[C@H]3O[C@@H](CC[C@@H]1O2)C[C@@H](C)C3=C (stereo not given in full) | 4.2 | 0.91 nM | 0.22 nM
